Values quoted from earlier work, collected in PMC6315591 (Marine Drugs, 2018).

Test system: muscle nAChR on BC3H-1 cells

Substance: α-conotoxin MI
- greater affinity at the α/δ versus α/γ interface: 10,000 fold
